Tests used:
Assay type in all cases: cell-based, human
STAT3 = assay: Western blot STAT3; details: DS−1 2.5, 5.0, and 7.5 µM, 24 h
Description: (§1) Sample preparation: U−2 OS cells seeded in 10 cm Petri dishes were collected and washed with ice-cold PBS and RIPA lysis buffer with PMAF; phosphatase inhibitor was added, and the tubes were placed on ice for 30 min and vortexed for 30 s at intervals of 10 min. The samples were centrifuged at 12,000 g at 4 °C for 15 min, and the supernatants were collected in new centrifuge tubes. The protein samples were placed on ice, and the concentration of each protein sample was measured by the BCA kit (Thermo). The protein concentration was adjusted to the same by milli Q ultrapure water.
(§2) Loading and running the gel: Equal amounts of protein were loaded into the wells of the 10% SDS-PAGE gel, along with molecular weight markers, and 15 μg of total protein from the cell lysate was loaded. We then ran the gel for 45 min at 200 V.
(§3) Transferring the protein: We prepared the transfer stack as follows: negative plate, sponge, filter paper, gel, PVDF membrane, filter paper, sponge, and positive plate. The transfer was for 90 min at 200 mA.
Antibody staining: We blocked the membrane for 1 h at room temperature using 5% blocking solution, then incubated the membrane with appropriate dilutions of the primary antibody in the blocking solution overnight at 4 °C. […] Images were acquired using darkroom development techniques for chemiluminescence and analyzed by Image J.

cyclin E1 = assay: RT-PCR cyclin E1 mRNA in U−2 OS cells; details: 24 h
Description: (§4) Total RNA within cells was extracted by the RNAeasy™ Animal Long RNA Isolation Kit with Spin Column (Shanghai, Beyotime); the concentrations and OD260/OD280 and OD230/OD260 values were measured by NanoDrop. Five micrograms of RNA was used for reverse transcription; each sample was diluted to 16 μL, and 4 μL of synthesized premix solution (5×) was added, then the mixtures were placed in a 42 °C water bath for 10 min, then an 80 °C water bath for 10 min to deactivate reverse transcriptase. After reverse transcription, each sample was diluted to 140 μL. PCR amplification was carried out by the ABI700 real-time PCR system, and the amplification reaction was detected with a SYBR probe. After PCR, actin and GAPDH were used as internal references, and the relative standard curve method (2^−ΔΔcT) determined the relative expression of mRNA.

E-cadherin = assay: RT-PCR E-cadherin mRNA in U−2 OS cells; details: 24 h
Description: as §4

CXCL8 = assay: RT-PCR CXCL8 mRNA in U−2 OS cells; details: 24 h
Description: as §4

CD44 = assay: RNA-seq transcriptome, CD44 expression; details: DS−1 6.25 µM, 24 h
Description: Sample preparation: U−2 OS cells were seeded in a 10 cm culture dish, and we cultured them to the logarithmic growth phase, suctioned the previous medium, and added new medium with DS−1 at 0 and 6.25 μM; each group was repeated two times. After 24 h of culture, the dish was washed with PBS reagent 3 times. One milliliter of TRIzol reagent was added to every dish for cell lysate and then collected in centrifuge tubes.
Transcriptome sequencing and analysis were carried out by Novogene Bioinformatics Technology Co., Ltd. (Beijing, China).
Raw data in the fastq format were firstly processed through in-house Perl scripts. In this step, clean data were obtained by removing reads containing adapter or containing ploy-N and low-quality reads from raw data. […]
Reference genome and gene model annotation files were downloaded from the genome website directly. The index of the reference genome was built using Hisat2 v2.0.5 (https://github.com/DaehwanKimLab/hisat2, accessed on 4 May 2022), and paired-end clean reads were aligned to the reference genome using Hisat2 v2.0.5. FeatureCounts v1.5.0-p3 (https://github.com/byee4/featureCounts, accessed on 4 May 2022) was used to count the reads numbers mapped to each gene. Then the Fragments PerKilobase of transcript sequence per Millions […] (FPKMs) of each gene were calculated based on the length of the gene and reads’ count mapped to this gene. […]

snail = assay: RT-PCR snail mRNA in U−2 OS cells; details: 24 h
Description: as §4

vimentin = assay: RT-PCR vimentin mRNA in U−2 OS cells; details: 24 h
Description: as §4

phospho-STAT3 = assay: Western blot phospho-STAT3; details: 24 h
Description: as §1, §2, §3
Antibody staining: We blocked the membrane for 1 h at room temperature using 5% blocking solution, then incubated the membrane with appropriate dilutions of the primary antibody in the blocking solution overnight at 4 °C. We then washed the membrane with TBST reagent 3 times, 5 min each. Then, we incubated the membrane with the recommended dilution of labeled secondary antibody in blocking solution at room temperature for 1 h and washed the membrane with TBST reagent 3 times, 5 min each. For signal development, super-enhanced chemiluminescence detection reagents were added to the surface of the membrane for 1 min, then excess reagent was removed, and the membrane was covered in transparent plastic wrap. Images were acquired using darkroom development techniques for chemiluminescence and analyzed by Image J.

FASN = assay: RT-PCR FASN mRNA in U−2 OS cells; details: 24 h
Description: as §4

U−2 OS cells = assay: Scratch motility (wound-healing) assay
Description: U-2 OS cells were seeded in 6-well plates at a density of 200,000 per well and cultured to 90% abundance after 18 h. The cells were scratched with a 10 μL pipette tip along the ruler; each well was scratched 3 times in parallel, and the line was drawn perpendicular to the scratch on the back for fixed-point photography. We suctioned the previous medium and washed the cells with a PBS reagent. Then, we added 2% FBS medium with DS−1 and cultured the cells at 37 °C for different times. After 0, 24, and 48 h, the plate was taken out, and the scratches were observed and photographed by the inverted microscope, while the distance of scratches at different times was measured.
Cell mobility = (pre-migration distance – post-migration distance)/pre-migration distance × 100%. The cell migration rate of blank control was set as 100%, and the relative cell migration rate = cell migration rate/cell migration rate of control group × 100%

Cc1cccc2c3c(ccc12)C1=C(C(=O)C3=O)[C@@H](C)CO1 [DS−1, 15,16-Dihydrotanshinone I]
total protein content of STAT3 (STAT3): did not change significantly | cyclin E1 mRNA, fold of the control group (cyclin E1; first of three DS−1 doses (2.5 µM per Fig. 5 legend)): 0.52 ± 0.04 fold | cyclin E1 mRNA, fold of the control group (cyclin E1; second of three DS−1 doses (5.0 µM per Fig. 5 legend)): 0.48 ± 0.08 fold | cyclin E1 mRNA, fold of the control group (cyclin E1; third of three DS−1 doses (7.5 µM per Fig. 5 legend)): 0.36 ± 0.04 fold | E-cadherin mRNA, fold of the control group (E-cadherin; DS−1 2.5 µM): 1.21 ± 0.16 fold | E-cadherin mRNA, fold of the control group (E-cadherin; DS−1 5.0 µM): 1.26 ± 0.25 fold | E-cadherin mRNA, fold of the control group (E-cadherin; DS−1 7.5 µM): 1.61 ± 0.16 fold | CXCL8 mRNA, fold (CXCL8; DS−1 2.5 µM): 1.49 ± 0.10 fold | CXCL8 mRNA, fold (CXCL8; DS−1 5.0 µM): 3.34 ± 0.49 fold | CXCL8 mRNA, fold (CXCL8; DS−1 7.5 µM): 3.71 ± 0.53 fold | upregulation of CD44 in transcriptome (CD44): 2.94 ± 0.55 fold | snail mRNA, fold of the control group (snail; DS−1 5.0 µM): 0.46 ± 0.05 fold | snail mRNA, fold of the control group (snail; DS−1 7.5 µM): 0.39 ± 0.03 fold | vimentin mRNA, fold of the control group (vimentin; DS−1 2.5 µM): 0.67 ± 0.11 fold | vimentin mRNA, fold of the control group (vimentin; DS−1 5.0 µM): 0.51 ± 0.11 fold | vimentin mRNA, fold of the control group (vimentin; DS−1 7.5 µM): 0.12 ± 0.16 fold | phospho-STAT3, fold of the control group (phospho-STAT3; DS−1 2.5 µM): 0.59 ± 0.09 fold | phospho-STAT3, fold of the control group (phospho-STAT3; DS−1 5.0 µM): 0.43 ± 0.03 fold | phospho-STAT3, fold of the control group (phospho-STAT3; DS−1 7.5 µM): 0.32 ± 0.03 fold | ratio of pSTAT3/STAT3 (phospho-STAT3; DS−1 2.5, 5.0, and 7.5 µM): significantly decreased | FASN mRNA, fold of the control group (FASN; DS−1 2.5 µM): 0.59 ± 0.14 fold | FASN mRNA, fold of the control group (FASN; DS−1 5.0 µM): 0.51 ± 0.07 fold | FASN mRNA, fold of the control group (FASN; DS−1 7.5 µM): 0.26 ± 0.01 fold | relative mobility compared to control cells (U−2 OS cells; DS−1 2.5 µM, 24 h): 24.8 ± 9.9% | relative mobility compared to control cells (U−2 OS cells; DS−1 2.5 μM, 48 h): 18.1 ± 6.6% | relative mobility compared to control cells (U−2 OS cells; DS−1 5.0 µM, 24 h): 17.5 ± 6.6% | relative mobility compared to control cells (U−2 OS cells; DS−1 5.0 μM, 48 h): 7.3 ± 7.1% | relative mobility compared to control cells (U−2 OS cells; DS−1 7.5 µM, 24 h): 6.6 ± 0.8% | relative mobility compared to control cells (U−2 OS cells; DS−1 7.5 μM, 48 h): 4.3 ± 1.8%

Source: paper PMC9231138, “Dihydrotanshinone I Enhances Cell Adhesion and Inhibits Cell Migration in Osteosarcoma U−2 OS Cells through CD44 and Chemokine Signaling” (Molecules, 2022)
